Test [1] concerns the target T1, Androgen receptor (Rattus norvegicus, UniProt P15207).
T1 sequence (P15207 whole entry): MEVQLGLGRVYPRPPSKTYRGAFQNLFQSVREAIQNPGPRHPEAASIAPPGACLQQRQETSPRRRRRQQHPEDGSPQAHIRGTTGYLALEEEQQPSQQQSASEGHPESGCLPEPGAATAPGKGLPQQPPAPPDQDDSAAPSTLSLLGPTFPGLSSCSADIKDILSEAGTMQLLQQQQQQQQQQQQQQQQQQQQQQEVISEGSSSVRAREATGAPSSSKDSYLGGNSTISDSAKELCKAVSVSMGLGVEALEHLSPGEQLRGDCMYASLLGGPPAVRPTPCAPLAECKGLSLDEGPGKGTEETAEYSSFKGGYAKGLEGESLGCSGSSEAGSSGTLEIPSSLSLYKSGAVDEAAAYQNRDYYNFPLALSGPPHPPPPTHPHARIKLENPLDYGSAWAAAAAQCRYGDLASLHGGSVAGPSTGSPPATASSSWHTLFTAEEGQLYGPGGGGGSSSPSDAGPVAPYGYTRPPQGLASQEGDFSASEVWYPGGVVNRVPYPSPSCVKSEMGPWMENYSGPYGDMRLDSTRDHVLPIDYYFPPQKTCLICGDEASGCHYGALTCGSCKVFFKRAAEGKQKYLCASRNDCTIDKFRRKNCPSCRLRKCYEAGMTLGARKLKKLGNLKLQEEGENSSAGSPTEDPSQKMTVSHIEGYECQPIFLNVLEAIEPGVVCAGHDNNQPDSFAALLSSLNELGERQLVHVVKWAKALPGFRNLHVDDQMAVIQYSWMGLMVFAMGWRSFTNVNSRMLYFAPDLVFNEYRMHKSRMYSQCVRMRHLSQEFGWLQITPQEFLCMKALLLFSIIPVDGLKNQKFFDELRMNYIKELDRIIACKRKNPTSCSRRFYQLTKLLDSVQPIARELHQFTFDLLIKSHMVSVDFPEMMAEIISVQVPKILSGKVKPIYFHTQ
The test is classed as functional.

Test [2] concerns the target T1, Androgen receptor. Format: functional. The source holds these as a separate data set.
In test [3] the target is Beta-3 adrenergic receptor (Homo sapiens, UniProt P13945).
Test [4] concerns the target T1, Androgen receptor.
The next test concerns the target Glucagon receptor (Homo sapiens, UniProt P47871).
The target in test [5] is 5-hydroxytryptamine receptor 2B (Homo sapiens, UniProt P41595).
For test [6], the target named is T2, Neuropeptide Y receptor type 2 (Homo sapiens, UniProt P49146).
T2 sequence (P49146 whole entry): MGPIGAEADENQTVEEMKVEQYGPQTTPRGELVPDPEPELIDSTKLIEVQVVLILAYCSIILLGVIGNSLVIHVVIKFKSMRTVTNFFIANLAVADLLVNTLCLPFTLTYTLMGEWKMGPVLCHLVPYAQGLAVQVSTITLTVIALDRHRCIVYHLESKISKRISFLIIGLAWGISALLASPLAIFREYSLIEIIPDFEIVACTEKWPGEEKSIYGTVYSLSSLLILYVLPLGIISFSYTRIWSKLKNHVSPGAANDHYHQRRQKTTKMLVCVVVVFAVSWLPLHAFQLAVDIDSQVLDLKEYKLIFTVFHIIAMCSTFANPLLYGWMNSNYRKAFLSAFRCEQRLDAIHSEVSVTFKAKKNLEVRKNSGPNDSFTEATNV

The next test has as its target T3, Progesterone receptor (Homo sapiens, UniProt P06401).
T3 sequence (P06401 whole entry): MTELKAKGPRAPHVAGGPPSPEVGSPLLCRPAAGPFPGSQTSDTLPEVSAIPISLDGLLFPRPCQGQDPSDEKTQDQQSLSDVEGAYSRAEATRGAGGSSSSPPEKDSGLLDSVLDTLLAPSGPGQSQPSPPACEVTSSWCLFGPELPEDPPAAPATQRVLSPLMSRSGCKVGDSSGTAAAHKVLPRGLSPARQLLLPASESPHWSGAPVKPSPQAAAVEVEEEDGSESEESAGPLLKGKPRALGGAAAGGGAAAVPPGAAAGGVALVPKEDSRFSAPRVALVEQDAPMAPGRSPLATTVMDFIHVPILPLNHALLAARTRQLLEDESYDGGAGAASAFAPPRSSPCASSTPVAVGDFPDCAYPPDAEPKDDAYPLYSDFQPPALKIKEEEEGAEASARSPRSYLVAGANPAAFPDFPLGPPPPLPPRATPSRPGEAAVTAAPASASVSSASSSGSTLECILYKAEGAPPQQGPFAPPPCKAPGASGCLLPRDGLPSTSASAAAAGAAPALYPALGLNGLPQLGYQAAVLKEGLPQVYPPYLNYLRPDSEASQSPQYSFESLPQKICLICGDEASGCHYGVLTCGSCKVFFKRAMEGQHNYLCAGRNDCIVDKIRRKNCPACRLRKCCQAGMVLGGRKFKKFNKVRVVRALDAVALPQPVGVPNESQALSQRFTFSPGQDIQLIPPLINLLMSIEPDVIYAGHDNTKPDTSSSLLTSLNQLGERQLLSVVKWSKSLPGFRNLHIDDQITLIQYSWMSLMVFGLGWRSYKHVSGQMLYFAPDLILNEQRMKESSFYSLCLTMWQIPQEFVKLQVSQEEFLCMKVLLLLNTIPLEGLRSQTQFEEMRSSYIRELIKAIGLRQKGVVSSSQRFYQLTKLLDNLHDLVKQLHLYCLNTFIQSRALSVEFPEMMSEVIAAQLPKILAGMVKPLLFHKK

Test [7] addresses T4, Muscarinic acetylcholine receptor M2 (Homo sapiens, UniProt P08172).
T4 sequence (P08172 whole entry): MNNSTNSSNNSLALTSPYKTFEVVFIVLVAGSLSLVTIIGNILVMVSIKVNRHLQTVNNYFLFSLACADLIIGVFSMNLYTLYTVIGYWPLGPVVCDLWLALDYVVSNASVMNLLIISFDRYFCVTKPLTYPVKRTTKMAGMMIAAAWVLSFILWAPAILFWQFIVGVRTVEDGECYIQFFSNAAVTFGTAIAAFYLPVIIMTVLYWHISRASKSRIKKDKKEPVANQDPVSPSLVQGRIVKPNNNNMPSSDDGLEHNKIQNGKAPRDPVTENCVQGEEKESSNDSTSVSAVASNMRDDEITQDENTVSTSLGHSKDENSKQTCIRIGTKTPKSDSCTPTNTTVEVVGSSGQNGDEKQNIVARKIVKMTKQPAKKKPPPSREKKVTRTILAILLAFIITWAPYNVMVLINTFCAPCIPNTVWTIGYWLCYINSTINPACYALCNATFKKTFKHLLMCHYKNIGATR

The target in test [8] is 5-hydroxytryptamine receptor 2A (Homo sapiens, UniProt P28223).
Also: assay procedure not described here.

Beta-3 adrenergic receptor, sequence (P13945 whole entry): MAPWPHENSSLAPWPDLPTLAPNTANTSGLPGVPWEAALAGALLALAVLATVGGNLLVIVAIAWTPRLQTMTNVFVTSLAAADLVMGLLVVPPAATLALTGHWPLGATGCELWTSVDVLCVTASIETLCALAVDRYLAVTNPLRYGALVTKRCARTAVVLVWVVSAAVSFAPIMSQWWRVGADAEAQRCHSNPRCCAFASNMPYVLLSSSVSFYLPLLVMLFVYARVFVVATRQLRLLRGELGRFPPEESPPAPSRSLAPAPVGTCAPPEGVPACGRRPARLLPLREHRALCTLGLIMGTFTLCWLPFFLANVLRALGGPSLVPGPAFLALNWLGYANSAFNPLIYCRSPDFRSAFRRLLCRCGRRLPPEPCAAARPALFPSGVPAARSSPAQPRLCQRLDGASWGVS
Glucagon receptor, sequence (P47871 whole entry): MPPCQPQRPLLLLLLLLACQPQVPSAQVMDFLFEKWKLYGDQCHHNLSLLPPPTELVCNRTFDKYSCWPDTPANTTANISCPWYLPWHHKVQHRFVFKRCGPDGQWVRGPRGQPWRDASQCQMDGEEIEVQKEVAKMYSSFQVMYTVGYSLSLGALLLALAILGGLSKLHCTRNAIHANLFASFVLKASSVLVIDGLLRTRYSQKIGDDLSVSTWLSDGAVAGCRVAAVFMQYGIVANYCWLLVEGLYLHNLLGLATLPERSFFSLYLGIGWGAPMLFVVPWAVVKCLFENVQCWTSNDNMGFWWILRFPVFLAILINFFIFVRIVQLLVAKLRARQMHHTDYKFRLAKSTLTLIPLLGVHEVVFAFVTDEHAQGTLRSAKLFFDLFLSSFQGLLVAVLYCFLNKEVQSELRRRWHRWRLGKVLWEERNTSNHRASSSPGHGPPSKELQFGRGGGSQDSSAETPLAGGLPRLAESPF
5-hydroxytryptamine receptor 2B, sequence (P41595 whole entry): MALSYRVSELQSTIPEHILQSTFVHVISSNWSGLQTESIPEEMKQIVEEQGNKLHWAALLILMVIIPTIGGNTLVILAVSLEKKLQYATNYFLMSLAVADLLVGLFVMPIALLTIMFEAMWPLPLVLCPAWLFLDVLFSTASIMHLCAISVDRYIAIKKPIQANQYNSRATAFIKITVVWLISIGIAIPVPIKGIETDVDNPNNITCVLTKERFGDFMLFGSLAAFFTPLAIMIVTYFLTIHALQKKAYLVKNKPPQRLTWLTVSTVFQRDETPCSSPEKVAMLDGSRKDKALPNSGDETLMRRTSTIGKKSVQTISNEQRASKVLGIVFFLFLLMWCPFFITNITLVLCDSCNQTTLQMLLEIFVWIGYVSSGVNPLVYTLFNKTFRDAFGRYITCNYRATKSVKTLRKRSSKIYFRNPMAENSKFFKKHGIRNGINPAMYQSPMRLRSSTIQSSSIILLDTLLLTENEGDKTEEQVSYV
5-hydroxytryptamine receptor 2A, sequence (P28223 whole entry): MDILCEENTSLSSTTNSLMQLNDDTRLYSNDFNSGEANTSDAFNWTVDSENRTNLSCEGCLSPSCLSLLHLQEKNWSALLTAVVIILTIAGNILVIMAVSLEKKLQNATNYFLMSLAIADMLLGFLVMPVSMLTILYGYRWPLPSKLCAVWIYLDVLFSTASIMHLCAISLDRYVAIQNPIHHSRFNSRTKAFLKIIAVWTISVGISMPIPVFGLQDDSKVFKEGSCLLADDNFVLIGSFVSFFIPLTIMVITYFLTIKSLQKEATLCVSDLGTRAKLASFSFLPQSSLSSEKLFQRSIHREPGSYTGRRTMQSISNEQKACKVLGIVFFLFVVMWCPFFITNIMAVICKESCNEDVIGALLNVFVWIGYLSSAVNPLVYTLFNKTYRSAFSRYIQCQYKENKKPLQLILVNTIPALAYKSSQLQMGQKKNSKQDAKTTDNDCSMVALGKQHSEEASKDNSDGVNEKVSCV

By AC50 is commonly meant the concentration giving half of the maximal activity seen. High values mean activity only at high concentration, low ones activity at low concentration. Consider TOCOFERSOLAN, for which the AC50 on Androgen receptor [1] and at Androgen receptor [2] was above 30 µM in each case.

For the compound `NC(CO)C(=O)NNCc1ccc(O)c(O)c1O` (stereo not drawn) [BENSERAZIDE], the AC50 in test [3] is above 30 µM; at Androgen receptor [4], above 30 µM; on Glucagon receptor it was above 30 µM; in test [5], above 10 µM; in test [6], above 30 µM; on Progesterone receptor, above 30 µM. Also, the AC50 in [7] and in test [8] was above 10 µM in each case.

For the compound `CC[C@]1(O)C[C@@H]2CN(CCc3c([nH]c4ccccc34)[C@@](C(=O)OC)(c3cc4c(cc3OC)N(C)[C@H]3[C@@](O)(C(N)=O)[C@H](O)[C@]5(CC)C=CCN6CC[C@]43[C@@H]65)C2)C1` [VINDESINE], the AC50 at Androgen receptor [1] and on Androgen receptor [2] was above 30 µM throughout.

For `COc1c(C)c2c(c(O)c1C/C=C(\C)CCC(=O)OCCN1CCOCC1)C(=O)OC2` [MYCOPHENOLATE MOFETIL], the AC50 at Androgen receptor [1] and on Androgen receptor [2] was above 30 µM throughout.

As to `O=C1NCCN1CCN1CCC(c2cn(-c3ccc(F)cc3)c3ccc(Cl)cc23)CC1` [SERTINDOLE], the AC50 at Androgen receptor [1] was above 30 µM; on Androgen receptor [2], above 30 µM; in test [5], 0.012 µM.

For the compound `[H]/N=C(/N)c1ccc(NCc2nc3cc(C(=O)N(CCC(=O)O)c4ccccn4)ccc3n2C)cc1` [DABIGATRAN], the AC50 at Androgen receptor [1] and on Androgen receptor [2] was above 30 µM throughout.

`O=C(OCCN1CCOCC1)c1cccnc1Nc1cccc(C(F)(F)F)c1` [MORNIFLUMATE]: the AC50 on Androgen receptor [1] and at Androgen receptor [2] was above 30 µM throughout.

Consider `C1=Cc2cccc(OCC3CNCCO3)c2C1` (stereo not drawn) [INDELOXAZINE], for which the AC50 at Androgen receptor [1] and on Androgen receptor [2] was above 30 µM each time.

For the compound `COc1ccc2c(c1)c(CC(=O)OCC(=O)O)c(C)n2C(=O)c1ccc(Cl)cc1` [ACEMETACIN], the AC50 on Androgen receptor [1] and on Androgen receptor [2] was above 30 µM each time.

Regarding `CN(C)C(=O)OC1N=C(c2ccccc2)c2cc(Cl)ccc2N(C)C1=O` (stereo not drawn) [CAMAZEPAM], the AC50 in [3] was above 30 µM; on Androgen receptor [4], above 30 µM; at Glucagon receptor, above 30 µM; in test [5], above 10 µM; in test [6], above 30 µM; on Progesterone receptor it was above 30 µM. The AC50 in [7] and in test [8] was above 10 µM in each case.

Turning to `CCCCN1CCCCC1C(=O)Nc1c(C)cccc1C` (stereo not drawn) [BUPIVACAINE], the AC50 at Androgen receptor [1] and at Androgen receptor [2] was above 30 µM throughout.

Take `C#CC1(OC(N)=O)CCCCC1` [ETHINAMATE]: the AC50 (at Androgen receptor [4]; in test [8]) was above 10 µM each time.

Consider `Cc1nc2ccc(CN(C)c3ccc(C(=O)N[C@@H](CCC(=O)O)C(=O)O)s3)cc2c(=O)[nH]1` [RALTITREXED], for which the concentration at half-maximal activity (AC50) on Androgen receptor [1] and at Androgen receptor [2] was above 30 µM in each case.

Consider `Cc1c(C(=O)Nc2ccc(N3C[C@@H](C)O[C@@H](C)C3)nc2)cccc1-c1ccc(OC(F)(F)F)cc1` [SONIDEGIB], for which the AC50 was above 30 µM in test [3]; above 30 µM at Androgen receptor [4]; above 30 µM on Glucagon receptor; above 10 µM in test [5]; above 30 µM in test [6]; 19.7 µM at Progesterone receptor. In addition, the half-maximal activity concentration (AC50) in [7] and in test [8] was above 10 µM in each case.

In the case of `CCC(C(=O)O)c1ccc(CC(C)C)cc1` (stereo not drawn) [BUTIBUFEN], the AC50 on Androgen receptor [1] and at Androgen receptor [2] was above 30 µM in each case.

With `CCCCCN(C)CCC(O)(P(=O)(O)O)P(=O)(O)O` [IBANDRONIC ACID], the AC50 is above 30 µM in test [3]; above 30 µM on Androgen receptor [1]; above 30 µM on Androgen receptor [2]; above 30 µM at Androgen receptor [4]; above 30 µM on Glucagon receptor; above 10 µM in test [5]. Further, the figures for the AC50 (in [6]; at Progesterone receptor; in test [8]) were above 30 µM, above 30 µM and above 10 µM, respectively.

As to `CCCCCCC(C)(C)c1cc(O)c2c(c1)OC(C)(C)C1CCC(=O)CC21` (stereo not drawn) [NABILONE], the AC50 at Androgen receptor [1] and at Androgen receptor [2] was above 30 µM in each case.

As to `CC(C)(Oc1ccc(C2CC2(Cl)Cl)cc1)C(=O)O` (stereo not drawn) [CIPROFIBRATE], the AC50 on Androgen receptor [1] and on Androgen receptor [2] was above 30 µM in each case.

With `CCOc1cc(N)c([N+](=O)[O-])cc1C(=O)NC1CCN(CC2CC=CCC2)CC1` (stereo not drawn) [CINITAPRIDE], the AC50 at Androgen receptor [1] is above 30 µM; at Androgen receptor [2], above 30 µM; in test [5], 0.0023 µM; in test [8], 0.009 µM.

With `COC(=O)[C@H]1[C@@H](OC(=O)c2ccccc2)C[C@@H]2CC[C@H]1N2C` [COCAINE], the AC50 on Androgen receptor [1] and at Androgen receptor [2] was above 30 µM throughout.

These data come from ChEMBL document CHEMBL5291721, “A preclinical secondary pharmacology resource illuminates target-adverse drug reaction associations of marketed drugs” (Nat Commun, 2023).
